Assays:
[1] = biological target: T1, ERBB2-A775_G776insYVMA (ERBB2YVMA) (Homo sapiens, UniProt P04626, INS775YVMA); assay: HotSpot radiometric kinase activity assay, ERBB2YVMA; conditions: biochemical activity, read-out: HER2-YVMA IC50
T1 construct: purchased SignalChem E27-13BG
Procedure: The purpose of the wtERBB2, ERBB2-A775_G776insYVMA (ERBB2YVMA), wtEGFR biochemical assay was to evaluate the inhibition (% inhibition and IC50 values) of the small molecule inhibitors by using the “HotSpot” radiometric kinase activity assay. HotSpot assays monitor the […] of kinase substrate by the radioactive gamma phosphate of adenosine triphosphate (33P-ATP) during biochemical reactions. HotSpot assays was performed in steps upon completion of the kinase reaction: deposition of a reaction mixture aliquot onto P81 ion exchange paper, extensive washing of the aforementioned P81 paper using phosphoric acid to remove unbound radiolabeled 33P-ATP from the P81 paper, and finally visualization and quantification of the dried P81 paper utilizing a phosphoimager. […] Typical reaction solutions (10 μL final reaction volume) contained the following buffer conditions: 20 mM Hepes (pH 7.5), 10 mM MgCl2, 1 mM EGTA, 0.01% Brij35, 0.02 mg/mL BSA, 0.1 mM Na3VO4, 2 mM DTT, 1% DMSO. The assay was primed by preparing a fresh 0.2 mg/mL solution of pEY (Sigma Cat: P7244) substrate in the reaction buffer and supplementing that solution with […] of MnCl2 as substrate cofactor (Sigma Cat: M9522). The kinase of interest was then added to the solution at the appropriate concentration (30 nM wtERBB2 from, or 20 nM ERBB2YVMA, or 4 nM wtEGFR) and gently mixed prior to delivery of compound in 100% DMSO by acoustic dispensing (Beckman Echo550). Compound, Kinase, and substrate were allowed to incubate for 20 min at room temperature prior to the initiation of the reaction by addition of 33P-ATP (PerkinElmer Cat: NEG602, final conc 10 μM). […] IC50 determinations were made from a plot of kinase activity as a function of inhibitor concentration fit to the 4-parameter IC50 equation with the enzyme concentration held constant using GraphPad Prism (San Diego).

BaF3-HER2YVMA cells = BaF3-HER2YVMA cells (Homo sapiens, UniProt P04626, DUP772-775, cells depend on it); assay: Cell growth inhibition assay (CellTiterGlo, 3 days), BaF3-HER2YVMA; format: cell-based; conditions: BaF3_HER2YVMA cells, read-out: HER2-YVMA IC50
BaF3_HER2WT cells = BaF3_HER2WT cells (Homo sapiens, UniProt P04626); assay: Cell growth inhibition assay (CellTiterGlo, 3 days), BaF3_HER2WT; format: cell-based; conditions: read-out: HER2 WT IC50
BaF3_EGFRWT cells = BaF3_EGFRWT cells (Homo sapiens, UniProt P00533); assay: Cell growth inhibition assay (CellTiterGlo, 3 days), BaF3_EGFRWT; format: cell-based; conditions: read-out: EGFR WT IC50
Chain of BaF3_EGFRWT cells (P00533 whole entry, change not shown): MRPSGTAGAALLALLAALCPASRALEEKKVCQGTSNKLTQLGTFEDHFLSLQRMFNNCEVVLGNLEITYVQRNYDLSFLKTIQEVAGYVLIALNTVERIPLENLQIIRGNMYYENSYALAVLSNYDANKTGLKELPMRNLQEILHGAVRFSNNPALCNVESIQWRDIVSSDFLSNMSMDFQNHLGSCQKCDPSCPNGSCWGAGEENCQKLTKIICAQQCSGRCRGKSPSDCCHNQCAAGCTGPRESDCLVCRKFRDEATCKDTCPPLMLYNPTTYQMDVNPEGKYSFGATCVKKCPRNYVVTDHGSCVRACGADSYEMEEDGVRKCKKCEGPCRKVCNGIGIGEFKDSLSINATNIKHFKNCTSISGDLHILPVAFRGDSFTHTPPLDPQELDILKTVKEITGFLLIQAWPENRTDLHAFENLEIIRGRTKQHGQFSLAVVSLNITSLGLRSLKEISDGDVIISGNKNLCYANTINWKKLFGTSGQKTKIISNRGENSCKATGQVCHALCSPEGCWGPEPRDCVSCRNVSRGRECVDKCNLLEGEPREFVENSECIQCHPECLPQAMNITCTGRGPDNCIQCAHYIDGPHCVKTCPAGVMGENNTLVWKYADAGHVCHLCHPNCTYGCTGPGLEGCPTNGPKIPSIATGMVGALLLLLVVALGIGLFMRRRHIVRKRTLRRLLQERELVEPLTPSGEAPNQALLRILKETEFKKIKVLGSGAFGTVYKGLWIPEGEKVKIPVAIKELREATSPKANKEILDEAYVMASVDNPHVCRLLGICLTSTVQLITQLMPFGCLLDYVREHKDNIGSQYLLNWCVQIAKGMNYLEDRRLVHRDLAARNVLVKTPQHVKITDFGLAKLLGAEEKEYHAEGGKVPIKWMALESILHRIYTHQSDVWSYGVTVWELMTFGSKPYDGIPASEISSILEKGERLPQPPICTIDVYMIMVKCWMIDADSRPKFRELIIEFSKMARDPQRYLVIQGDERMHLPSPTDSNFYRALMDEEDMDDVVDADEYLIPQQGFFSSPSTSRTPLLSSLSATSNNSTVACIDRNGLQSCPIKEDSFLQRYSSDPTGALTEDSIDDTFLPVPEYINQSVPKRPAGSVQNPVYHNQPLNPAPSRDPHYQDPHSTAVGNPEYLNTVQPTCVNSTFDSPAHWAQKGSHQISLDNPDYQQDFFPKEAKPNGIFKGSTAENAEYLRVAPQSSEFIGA

T1 sequence (P04626 with tags, fused parts or gaps INS775YVMA limits assumed): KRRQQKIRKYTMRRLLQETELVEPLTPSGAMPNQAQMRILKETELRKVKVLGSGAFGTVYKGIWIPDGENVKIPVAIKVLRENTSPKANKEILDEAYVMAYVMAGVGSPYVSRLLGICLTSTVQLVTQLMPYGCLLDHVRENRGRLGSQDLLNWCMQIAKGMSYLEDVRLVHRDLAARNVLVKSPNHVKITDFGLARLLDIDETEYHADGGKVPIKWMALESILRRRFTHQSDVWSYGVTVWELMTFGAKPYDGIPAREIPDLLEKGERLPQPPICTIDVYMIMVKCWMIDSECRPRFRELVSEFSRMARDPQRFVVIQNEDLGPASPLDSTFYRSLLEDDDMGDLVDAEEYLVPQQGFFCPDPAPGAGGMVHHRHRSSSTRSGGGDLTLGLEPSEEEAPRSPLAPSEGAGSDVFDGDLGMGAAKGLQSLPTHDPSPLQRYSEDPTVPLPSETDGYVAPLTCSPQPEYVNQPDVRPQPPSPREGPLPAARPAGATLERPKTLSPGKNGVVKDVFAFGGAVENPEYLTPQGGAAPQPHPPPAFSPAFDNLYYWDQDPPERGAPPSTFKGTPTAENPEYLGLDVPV
Chain of BaF3_HER2WT cells (P04626 whole entry, change not shown): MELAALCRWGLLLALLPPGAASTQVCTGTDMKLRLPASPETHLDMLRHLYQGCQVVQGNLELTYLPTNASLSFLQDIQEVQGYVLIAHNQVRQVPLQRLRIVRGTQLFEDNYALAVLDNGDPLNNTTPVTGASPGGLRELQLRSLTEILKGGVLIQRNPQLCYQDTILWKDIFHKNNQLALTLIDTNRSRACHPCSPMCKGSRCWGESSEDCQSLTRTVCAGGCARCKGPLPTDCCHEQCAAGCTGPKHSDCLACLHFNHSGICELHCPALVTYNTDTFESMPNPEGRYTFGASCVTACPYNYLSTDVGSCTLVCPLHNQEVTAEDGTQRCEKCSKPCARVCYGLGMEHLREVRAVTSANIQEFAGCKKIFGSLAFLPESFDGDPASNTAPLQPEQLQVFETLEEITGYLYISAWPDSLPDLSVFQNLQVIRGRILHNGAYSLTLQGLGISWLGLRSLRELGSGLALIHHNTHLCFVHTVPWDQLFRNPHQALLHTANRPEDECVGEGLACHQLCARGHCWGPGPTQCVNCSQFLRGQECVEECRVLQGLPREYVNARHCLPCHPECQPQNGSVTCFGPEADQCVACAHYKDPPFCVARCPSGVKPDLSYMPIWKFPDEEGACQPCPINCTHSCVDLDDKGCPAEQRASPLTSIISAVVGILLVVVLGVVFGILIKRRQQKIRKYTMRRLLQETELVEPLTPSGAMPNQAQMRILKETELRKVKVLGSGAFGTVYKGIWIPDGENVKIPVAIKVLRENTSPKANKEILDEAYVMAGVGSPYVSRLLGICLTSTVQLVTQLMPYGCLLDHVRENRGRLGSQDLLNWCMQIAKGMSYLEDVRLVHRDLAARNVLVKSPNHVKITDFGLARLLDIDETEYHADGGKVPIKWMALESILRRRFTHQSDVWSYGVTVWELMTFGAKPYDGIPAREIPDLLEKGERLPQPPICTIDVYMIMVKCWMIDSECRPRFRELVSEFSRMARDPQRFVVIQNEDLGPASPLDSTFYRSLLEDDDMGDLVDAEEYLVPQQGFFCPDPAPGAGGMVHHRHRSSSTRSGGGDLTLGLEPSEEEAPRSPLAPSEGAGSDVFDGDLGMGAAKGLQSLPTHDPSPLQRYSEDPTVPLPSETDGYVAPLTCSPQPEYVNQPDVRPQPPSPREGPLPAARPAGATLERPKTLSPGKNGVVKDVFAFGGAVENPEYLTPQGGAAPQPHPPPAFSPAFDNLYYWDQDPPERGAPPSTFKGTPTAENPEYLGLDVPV
Chain of BaF3-HER2YVMA cells (P04626 with tags, fused parts or gaps DUP772-775): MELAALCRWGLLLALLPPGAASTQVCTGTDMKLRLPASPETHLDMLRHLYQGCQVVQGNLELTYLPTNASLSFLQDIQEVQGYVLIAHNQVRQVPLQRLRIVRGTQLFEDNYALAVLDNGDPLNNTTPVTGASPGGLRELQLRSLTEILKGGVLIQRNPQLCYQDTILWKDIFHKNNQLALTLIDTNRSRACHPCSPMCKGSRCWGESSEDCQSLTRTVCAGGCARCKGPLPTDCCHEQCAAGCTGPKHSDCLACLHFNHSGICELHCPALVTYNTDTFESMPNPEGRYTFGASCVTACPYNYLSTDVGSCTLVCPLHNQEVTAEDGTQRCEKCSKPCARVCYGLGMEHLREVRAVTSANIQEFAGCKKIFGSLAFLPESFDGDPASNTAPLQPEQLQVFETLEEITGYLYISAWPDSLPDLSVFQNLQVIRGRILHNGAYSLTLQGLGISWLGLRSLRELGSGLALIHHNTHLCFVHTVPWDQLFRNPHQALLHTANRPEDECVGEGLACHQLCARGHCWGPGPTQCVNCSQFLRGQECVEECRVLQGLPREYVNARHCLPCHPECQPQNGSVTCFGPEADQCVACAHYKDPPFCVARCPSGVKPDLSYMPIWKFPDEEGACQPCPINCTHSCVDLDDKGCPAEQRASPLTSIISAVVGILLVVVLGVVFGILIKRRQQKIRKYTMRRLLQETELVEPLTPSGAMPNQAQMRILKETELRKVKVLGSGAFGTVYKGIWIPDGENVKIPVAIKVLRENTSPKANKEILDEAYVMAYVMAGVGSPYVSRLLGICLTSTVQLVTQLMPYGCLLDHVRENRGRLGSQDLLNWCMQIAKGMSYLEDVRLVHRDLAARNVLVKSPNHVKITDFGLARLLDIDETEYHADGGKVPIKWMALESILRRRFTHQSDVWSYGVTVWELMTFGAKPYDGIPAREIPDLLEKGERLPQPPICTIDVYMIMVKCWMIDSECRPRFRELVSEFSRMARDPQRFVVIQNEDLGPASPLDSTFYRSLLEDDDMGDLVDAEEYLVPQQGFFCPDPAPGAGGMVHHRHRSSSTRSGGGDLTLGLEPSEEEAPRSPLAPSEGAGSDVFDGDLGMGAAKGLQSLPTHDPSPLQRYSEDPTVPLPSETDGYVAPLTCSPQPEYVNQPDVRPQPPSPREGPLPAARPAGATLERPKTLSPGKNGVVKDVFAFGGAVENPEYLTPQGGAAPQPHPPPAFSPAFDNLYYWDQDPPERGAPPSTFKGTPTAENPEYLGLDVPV

IC50 [1] [nM] | GI50 (BaF3-HER2YVMA cells) [nM] | GI50 (BaF3_HER2WT cells) [nM] | GI50 (BaF3_EGFRWT cells) [nM] | SMILES
< 200 |  |  |  | Cc1cc(Nc2ncnn3ccc([C@H]4CCN(C(=O)/C=C/CN(C)C)C4)c23)ccc1Oc1ccn2ncnc2c1 (single isomer, unassigned) [Example 100]
< 200 |  |  |  | Cc1cc(Nc2ncnn3ccc([C@H]4CCCN(C(=O)/C=C/CN(C)C)C4)c23)ccc1Oc1ccn2ncnc2c1 (single isomer, unassigned) [Example 108]
< 200 |  |  |  | Cc1cc(Nc2ncnn3ccc([C@H]4CCCN(C(=O)/C=C/CN(C)C)CC4)c23)ccc1Oc1ccn2ncnc2c1 (single isomer, unassigned) [Example 110]
 | < 200 | < 200 | 1500 to 5000 | Cc1cc(Nc2ncnn3ccc(C4CCN(C(=O)[C@@H](F)Cl)CC4)c23)ccc1Oc1ccn2ncnc2c1 (single isomer, unassigned) [second eluting isomer of Examples 173 and 174]
 |  | < 200 |  | Cc1cc(Nc2ncnn3ccc(C4CC5CCC4CN5C(=O)/C=C/CN(C)C)c23)ccc1Oc1ccn2ncnc2c1 (single isomer, unassigned; first eluting) [first eluting isomer of Examples 137 and 138]
 | < 200 | < 200 | 1500 to 5000 | C=C(CN(C)C)C(=O)N1C2C=C(c3ccn4ncnc(Nc5ccc(Oc6ccn7ncnc7c6)c(C)c5)c34)CC1CC2 (stereo not shown) [Example 30, 1-(3-(4-((4-([1,2,4]triazolo[1,5-a]pyridin-7-yloxy)-3-methylphenyl)amino)pyrrolo[2,1-f][1,2,4]triazin-5-yl)-8-azabicyclo[3.2.1]oct-2-en-8-yl)-2-((dimethylamino)methyl) prop-2-en-1-one acetate]
